# From US4510144A, “Methods of imparting immunomodulating activity with dihydrothiazolo purine derivatives” (Newport Pharmaceuticals International, priority 1982, dated 1985)
# Entries after “also recorded” stand apart in the source; their conditions may differ.
# Experiments:
# [1] = tested on: murine spleen cells, Con A induced (T-cells); assay: Con A induced lymphocyte proliferation in mouse spleen cells in vitro; type: cell-based, mouse (Balb/C); settings: for activity at 25 µg/mL: drug 25,000 ng/ml; for effect on Con A induced proliferation (T-cell response), in words: in vitro
# Source text: (§1) (1) Mitogen-(Lipopolysaccharide, LPS or Con A) induced lymphocyte proliferation using murine spleen cells (in vitro)
# (§2) 1. […] LPS is a mitogen which acts preferentially on B-cells. […] Con A is considered a T-cell mitogen.
# (§3) 1. Balb/C male mice, 7-8 weeks old, are used up to 20-24 weeks of age.
# (§4) 2. The animals are sacrificed by cervical dislocation and the animals' left sides swabbed with 70% ethanol. An incision is made between the lower ribs and pelvis, laterally from front to back, and the skin retracted. Aseptic technique is to be observed from this point on.
# (§5) 3. The spleen is gently removed with sterile forceps. […] When all spleens have been collected and cleaned they are placed in a second petri dish containing 3 ml cold RPMI.
# (§6) 4. Spleen cell suspensions are prepared by gentle mincing of the tissue with a sterile blade and filtering through #100 stainless steel mesh.
# (§7) 6. An aliquot of the above suspension is prepared for cell counting as follows: 0.1 ml of suspension is diluted to 1.0 ml with 3% acetic acid and let stand at room temperature for at least five minutes. The sample is then diluted 1:100 with "Isoton II" (Curtis-Matheson Co.) and counted in a coulter counter.
# (§8) MURINE SPLENOCYTE STIMULATION WITH CONCANAVALIN A (CON A), LIPOPOLYSACCHARIDE (LPS), AND ALLOGENEIC SPLENOCYTES (LMC).
# (§9) There is set forth below the standard procedure which should be modified according to the solubility and other properties of the particular compound tested.
# (§10) Add ~10 ml RPMI to 1.79 g HEPES and vortex until completely dissolved. […] Allow to warm temperature before use.
# 5. Con A (Calbiochem)--100 mg/ml NaCl injection solution (McGaw), filter, aliquot in 1 ml, and store at -70° C.
# (§11) 8. Tritiated thymidine (^3 H-TdR, Schwartz-Mann, 6 Ci/mM). Remove a slightly larger volume of ^3 H-TdR than needed from vial with a 1 cc syringe and place volume in the cap of a small sterile plastic tube. […] Vortex thoroughly before adding to plates.
# (§12) 1. Animals are sacrificed by cervical dislocation killing one from each group and processing the cells individually before killing the next animal. Swab each animal with 70% ethanol before surgery. […] Use 8 vertical strokes (or enough to break up all tissue) with Teflon-tipped homogenizer. Filter each sample through a 100 mesh screen into a 50 ml tube. […] After all samples have been spun, vortex each briefly and let sit for 1 hour. Vortex each sample ~5 seconds, waiting ~10 seconds between each sample. Let sit 5 minutes, then pipet cell suspension into 5 ml (12×75 mm) tube being careful not to remove any sediment. Remove 50 ul cell suspension using micropipetter, carefully wipe pipet tip with kimwipe and pipet into 20 ml Isoton in Coulter counter vial, rinsing pipet several times in the Isoton. Add 6 drops of CyMet and swirl vial to mix. Use the following Coulter counter settings: Amplification-1, Threshold-10, and Aperture Current-1. Clean counter with Isoterge the morning of experiment and count background before standardizing with CH 0.60 Hematology Controls. After cell counts are obtained, dilute to 6×10^6 cells/ml with supplemented RPMI and aliquot into 3 tubes for the 3 assays.
# (§13) 1. Pipet 100 μl control media (supplemented RPMI) or appropriate dilution of mitogen (starting with lowest concentration) into microtiter plate using Titertek multi-channel pipetter. Place plates in 37° C. CO2 incubator with CO2 set at 0.5 after each plate has been pipetted. Pipet 100 μl responder cells into wells starting with most dilute mitogen concentration. Place plates in incubator as they are filled and after all plates are in incubator, let sit for 10-20 minutes. Wrap plates with plastic wrap, recover with top, replace in incubator, and reset CO2 to ~0.05. Save ~50 ml supplemented RPMI at 4° C. for thymidine dilution. After ~44 hours warm the RPMI to 37° C. in incubator. Dilute tritiated Thymidine 1:100 in warmed RPMI. Use Titertek to add 50 μl Thymidine to each well. Treat plates as above and incubate overnight (~18 hours).
# [2] = tested on: antibody production to sheep red blood cells (SRBC); assay: antigen (SRBC) dependent antibody synthesis in vivo (IgM plaques); parameters: species or system Balb/C mice; settings: for effect on antibody production in vivo, in words: SRBC immunized mice; for % change from control, antibody response to SRBC: Table X
# Procedure: (3) Antigen (sheep red blood cell, SRBC) dependent antibody synthesis (in vivo)
# as §9
# 1. A solution containing 500 μg/ml NPT is prepared by adding a preweighed amount of the drup powder to sterile BPS (phosphate buffered saline) and sonicating the solution for 30 minutes.
# 1. NPT drug solution is made by dissolving 500 μg NPT per mil PBS.
# 1. A 1.4% suspension of agarose in PBS (7 g in 500 ml) is autoclaved for 15 min.
# 1. Mice are immunized as follows: sheep blood (sheep #23) is received weekly from Hyland labs. It is asceptically collected in two volumes of Alseviers to one volume of blood.
# 6. The cell count is determined and the stock solution is diluted to 4×10^7 cells/ml. This final suspension is used for immunization.
# 7. Each mouse is immunized by i.v. injection into the lateral tail vein (warmed in a 50° C. water bath for veinous dilation) with 0.1 ml SRBC (sheep red blood cell) suspensions; the final concentration of SRBC's is 4×10^6 per mouse.
# 1. Mice are treated by i.p. injection on days […], 1, 2, and 3. A syringe (1 cc) is fitted with a one-half inch, 26 gauge needle. The needle is introduced at a 45° angle along the right side of the linea alba. A 0.2 ml volume is given to both drug and control treated groups.
# 2. Drug groups are given 0.2 ml of a desired concentration NPT solution which, for a 20 g mouse, is […].
# 1. Spleens are removed asceptically and placed individually in Falcon #2025 tissue culture tubes containing 3 ml MEM. The tubes are then stored on ice.
# 2. Spleens are homogenized in the same tube with a teflon pestle attached to a G. K. Heller variable speed reversible motor connected with a G. K. Heller GT-21 motor controller setting #6.
# 6. The cell count is obtained and the stock suspension is diluted to 1×10^7 cells/ml. The Coulter counter threshhold is set at 10. Red cells are lysed with three drops of Zap isoton.
# 1. Thirty-five hundredths gram agarose and 0.53 grams MEM powder are placed into an Erlenmeyer flask. Fifty ml of distilled H2 O is then added to the flask.
# 1. Five ml sheep blood (same batch as used for immunization) is washed three times in PBS using an IEC Clinical Standard Centrifuge, speed #4 (2800 RPM) for 10 min.
# 1. Agar plates are removed from refrigerator and allowed to warm to room temperature. They are labeled in triplicate for each experimental group.
# 2. Agar-filled tubes are removed from the water bath. One-tenth of the 10% SRBC's and 0.1 ml spleen cell suspension are added to each agar tube. The tubes are agitated on a Vortex mixer.
# 3. The contents of the tubes are poured immediately into agar base plates and swirled until a smooth layer is formed. The plates are placed on a level surface until the agar solidifies.
# 4. The plates are incubated at 37° C. in a humidified atmosphere of 5% CO2 and 95% air for 90 min.
# 6. Plates are removed from incubator and 1 ml of the diluted complement is added to each plate.
# 7. Plates are then incubated another 30-45 minutes at 37° C. Plates are then removed from incubator and counted using oblique light.
# [3] = tested on: murine spleen cells, LPS induced (B-cells); assay: LPS induced lymphocyte proliferation in mouse spleen cells in vitro; type: cell-based, mouse (Balb/C); settings: for activity at 25 µg/mL: drug 25,000 ng/ml; for effect on B-cell response / LPS induced proliferation, in words: in vitro
# Source text: as §1, §2, §3, §4, §5, §6, §7, §8, §9, §10
# 6. LPS (Sigma, E, coli serotype #011:84)--~1 mg/ml. […] Remove ~10 ml for dissolving HEPES (0.358 g) and filter HEPES solution. Add four 25 mg bottles of LPS to remaining media and incubate at 37° C. for 1 hour. Filter through 0.22 μm filters, add filtered HEPES, aliquot in 2 ml and store at -70° C.
# as §11, §12
# as §13, with “dilution.” for “dilution. After ~44 hours warm the RPMI to 37° C. in incubator. Dilute tritiated Thymidine 1:100 in warmed RPMI. Use Titertek to add 50 μl Thymidine to each well. Treat plates as above and incubate overnight (~18 hours).”
# [4] = tested on: splenocytes from athymic mice (theta positive cells); assay: induction of theta positive cells in splenocytes from athymic (nude) mice in vitro; type: cell-based; settings: in vitro
# Source text: (4) Induction of theta positive cells in nude mice (in vitro).
# [5] = Mus musculus, Con A .375 μg/ml, read-out: Con A D/C (maximum values)
# [6] = 0.05 mg/kg, *P ≤ 0.001 where starred
# [7] = 0.5 mg/kg, *P ≤ 0.001 where starred
# [8] = 5.0 mg/kg, *P ≤ 0.001 where starred, NPT 16485 N.S.
# [9] = Mus musculus, B-cell, LPS 5 μg/ml, read-out: LPS D/C (maximum values)
SMILES,"activity at 25 µg/mL [1, 5] [%]","effect on antibody production in vivo, in words [2]","% change from control, antibody response to SRBC [2, 6]","% change from control, antibody response to SRBC [2, 7]","activity at 25 µg/mL [3, 9] [%]","effect on B-cell response / LPS induced proliferation, in words [3]",further results
"Oc1ncnc2nc3n(c12)CCS3 [NPT 16485, 6-hydroxy-7,8-dihydrothiazolo-[2,3f]-purine]",118,enhancement of production of specific antibodies in vivo,+28%,+134%,185,enhance B-cell proliferation,"% change from control, antibody response to SRBC [2, 8]: +1.7%; effect on B-cell response / LPS induced proliferation, in words ([3]; listed as IIa): stimulating the B-cell response"
"O=c1c2nc3n(c2nc2n1CCS2)CCS3 [NPT 16449, 6-hydroxy-Bis-(3,4-dihydrothiazolo-8,9-dihydrothiazolo)-[3,2e-2,3f]purine]",–,enhancement of production of specific antibodies in vivo,+183%,+59%,–,enhance B-cell proliferation,"activity at 21 µg/mL ([1]; Mus musculus, drug 21,000 ng/ml, Con A .375 μg/ml, read-out: Con A D/C (maximum values)): 100%; activity at 21 µg/mL ([3]; Mus musculus, B-cell, drug 21,000 ng/ml, LPS 5 μg/ml, read-out: LPS D/C (maximum values)): 157%; effect on B-cell response / LPS induced proliferation, in words ([3]; listed as IVa): stimulating the B-cell response"
"CSc1nc(O)c2nc3n(c2n1)CCS3 [NPT 16472, 3-hydroxy-5-methylmercapto-7,8-dihydrothiazolo-[3,2e]-purine]",–,–,–,–,–,stimulating the B-cell response,"activity at 0.01 µg/mL ([1]; Mus musculus, drug 10 ng/ml, Con A .375 μg/ml, read-out: Con A D/C (maximum values)): 100%; % change from control, antibody response to SRBC ([2]; dose = 0.035 mg/kg, P < 0.05): +13%; activity at 0.01 µg/mL ([3]; Mus musculus, B-cell, drug 10 ng/ml, LPS 5 μg/ml, read-out: LPS D/C (maximum values)): 131%"
"c1ccc([C@H]2CN3CCSC3=N2)cc1 [Levamisole, reference compound]",–,–,–,–,–,–,"production of theta positive (T) cells, in words [4]: does not possess this property"
"CSc1ncnc2c1nc1n2CCS1 [NPT 16439, 3-methylmercapto-7,8-dihydrothiazolo-[3,2e]-purine]",–,potent inhibitor of antibody production,-40%,–,–,–,"activity at 4.5 µg/mL ([1]; Mus musculus, drug 4,500 ng/ml, Con A .375 μg/ml, read-out: Con A D/C (maximum values)): 57%; effect on Con A induced proliferation (T-cell response), in words [1]: potent inhibitors; effect on Con A induced proliferation (T-cell response), in words ([1]; listed as 16439): capable of inhibiting; effect on Con A induced proliferation (T-cell response), in words ([1]; listed as Ib): inhibiting the T-cell response; effect on antibody production in vivo, in words ([2]; listed as 16439): capable of inhibiting; % change from control, antibody response to SRBC ([2]; dose = 0.2 mg/kg): -63%; activity at 4.5 µg/mL ([3]; Mus musculus, B-cell, drug 4,500 ng/ml, LPS 5 μg/ml, read-out: LPS D/C (maximum values)): 100%"
"Nc1ncnc2c1nc1n2CCS1 [NPT 16422, 3-amino-7,8-dihydrothiazolo-[3,2e]-purine]",20,capable of inhibiting,–,–,37,–,"effect on Con A induced proliferation (T-cell response), in words [1]: potent inhibitors; also recorded: capable of inhibiting"
"Oc1c2ncnc-2nc2n1CCS2 [NPT 16450, 6-hydroxy-7,8-dihydrothiazolo-[3,2a]-purine]",107,–,-64%,+15%,118,–,"% change from control, antibody response to SRBC [2, 8]: +36%"
